One block for each molecule: values may come before it.
Key:
[1] = biological target: Human immunodeficiency virus type 1 protease (Human immunodeficiency virus 1, UniProt Q72874); test: Inhibitory activity against HIV-1 protease cleavage of [V-S-Q-N-(beta-naphthylalanine)-P-I-V)
[2] = system: CEM-SS; test: Inhibitory activity against HIV-1 virus replication as determined by an XTT endpoint by 50%; type: functional; conditions: Homo sapiens, read-out: ED50 (the source's name)
[3] = Lipophilicity index (RP-HPLC pH 7); type: physicochemical; conditions: buffer
[4] = system: H9; test: Inhibitory activity against human T cell lymphoma (H9) growth by 50 %.; type: functional
[5] = Plasma elimination half life was determined for the compound; type: ADME, cell-free
[6] = In vitro therapeutic index was evaluated; type: functional
[7] = system: CEM-SS; test: Inhibitory activity against HIV-2 virus replication as determined by an XTT endpoint by 50%; type: functional; conditions: Homo sapiens, read-out: ED50 (the source's name)

IC50 [1]: 100 nM | Log k' [3]: 0.79
SMILES: CC(C)(C)OC(=O)N[C@@H](Cc1ccccc1)[C@H](O)CNC[C@@H](O)[C@H](Cc1ccc(O)cc1)NC(=O)OC(C)(C)C
EC50 [2]: 90 nM | CC50 [4]: 32000 nM

SMILES: CC(C)(C)OC(=O)N[C@@H](Cc1ccccc1)[C@H](O)CNC[C@@H](O)[C@H](Cc1ccc(OCCO)cc1)NC(=O)OC(C)(C)C
IC50 [1]: 64 nM | EC50 [2]: 60 nM | Log k' [3]: 0.82 | CC50 [4]: 56000 nM

SMILES: CC(C)(C)OC(=O)N[C@@H](Cc1ccccc1)[C@H](O)CNC[C@@H](O)[C@H](Cc1ccc(OCCCc2nc3ccccc3o2)cc1)NC(=O)OC(C)(C)C
IC50 [1]: 280 nM | EC50 [2]: 1500 nM | Log k' [3]: 1.98 | CC50 [4]: 5900 nM

SMILES: CC(C)(C)OC(=O)N[C@@H](Cc1ccccc1)[C@H](O)CNC[C@@H](O)[C@H](Cc1ccc2ncccc2c1)NC(=O)OC(C)(C)C
IC50 [1]: 130 nM | EC50 [2]: 30 nM | CC50 [4]: 15000 nM

SMILES: CC(C)(C)OC(=O)N[C@@H](Cc1ccccc1)[C@H](O)CNC[C@@H](O)[C@H](Cc1ccc(CCC(=O)N2CCOCC2)cc1)NC(=O)OC(C)(C)C
IC50 [1]: 85 nM | EC50 [2]: 210 nM | Log k' [3]: 1.03 | CC50 [4]: 58000 nM

SMILES: CC(C)(C)OC(=O)N[C@@H](Cc1ccccc1)[C@H](O)CNC[C@@H](O)[C@H](Cc1ccc(OCCCN2CCOCC2)cc1)NC(=O)OC(C)(C)C
IC50 [1]: 86 nM | EC50 [2]: 40 nM | Log k' [3]: 1.28 | CC50 [4]: 17000 nM

SMILES: CC(C)(C)OC(=O)N[C@@H](Cc1ccccc1)[C@H](O)CNC[C@@H](O)[C@H](Cc1cccc(OCc2ccccc2)c1)NC(=O)OC(C)(C)C
IC50 [1]: 140 nM | EC50 [2]: 90 nM | Log k' [3]: 2.04 | CC50 [4]: 1900 nM

SMILES: CC(C)(O)COc1ccc(C[C@H](NC(=O)OC(C)(C)C)[C@H](O)CNC[C@@H](O)[C@H](Cc2ccccc2)NC(=O)OC(C)(C)C)cc1
IC50 [1]: 120 nM | EC50 [2]: 90 nM | Log k' [3]: 1.22 | CC50 [4]: 49000 nM

SMILES: COCCOc1ccc(C[C@H](NC(=O)OC(C)(C)C)[C@H](O)CNC[C@@H](O)[C@H](Cc2ccccc2)NC(=O)OC(C)(C)C)cc1
IC50 [1]: 72 nM | EC50 [2]: 70 nM | Log k' [3]: 1.19 | CC50 [4]: 20000 nM

SMILES: CC(C)(C)OC(=O)N[C@@H](Cc1ccccc1)[C@H](O)CNC[C@@H](O)[C@H](Cc1ccc(OCCn2ccnc2)cc1)NC(=O)OC(C)(C)C
IC50 [1]: 90 nM | EC50 [2]: 50 nM | Log k' [3]: 0.96 | CC50 [4]: 22000 nM

SMILES: CN(C)C(=O)OCCOc1ccc(C[C@H](NC(=O)OC(C)(C)C)[C@H](O)CNC[C@@H](O)[C@H](Cc2ccccc2)NC(=O)OC(C)(C)C)cc1
IC50 [1]: 40 nM | EC50 [2]: 120 nM | Log k' [3]: 1.24 | CC50 [4]: 16000 nM

IC50 [1]: 110 nM | Log k' [3]: 0.81
SMILES: CC(C)(C)OC(=O)N[C@@H](Cc1ccccc1)[C@H](O)CNC[C@@H](O)[C@H](Cc1ccc(OCC(O)c2ccccn2)cc1)NC(=O)OC(C)(C)C (stereo partly specified)
EC50 [2]: 200 nM | CC50 [4]: 58000 nM

SMILES: CC(C)(C)OC(=O)N[C@@H](Cc1ccccc1)[C@H](O)CNC[C@@H](O)[C@H](Cc1cccc(O)c1)NC(=O)OC(C)(C)C
IC50 [1]: 200 nM | EC50 [2]: 150 nM | Log k' [3]: 0.92 | CC50 [4]: 17000 nM

IC50 [1]: 100 nM | Log k' [3]: 0.87
SMILES: CC(C)(C)OC(=O)N[C@@H](Cc1ccccc1)[C@H](O)CNC[C@@H](O)[C@H](Cc1ccc(OCC(=O)N2CCOCC2)cc1)NC(=O)OC(C)(C)C
EC50 [2]: 100 nM | CC50 [4]: > 100000 nM

SMILES: CC(C)(C)OC(=O)N[C@@H](Cc1ccccc1)[C@H](O)CNC[C@@H](O)[C@H](Cc1ccc(OCCCN2CCOCC2=O)cc1)NC(=O)OC(C)(C)C
IC50 [1]: 80 nM | EC50 [2]: 56 nM | Log k' [3]: 0.92 | CC50 [4]: 59000 nM

SMILES: CC(C)(C)OC(=O)N[C@@H](Cc1ccccc1)[C@H](O)CNC[C@@H](O)[C@H](Cc1ccncc1)NC(=O)OC(C)(C)C
IC50 [1]: 400 nM | EC50 [2]: 540 nM | Log k' [3]: 0.8 | CC50 [4]: 67000 nM

IC50 [1]: 150 nM | Log k' [3]: 0.12
SMILES: CC(C)(C)OC(=O)N[C@@H](Cc1ccccc1)[C@H](O)CNC[C@@H](O)[C@H](Cc1ccc(OCC(=O)O)cc1)NC(=O)OC(C)(C)C
EC50 [2]: 74000 nM | CC50 [4]: > 100000 nM

IC50 [1]: 100 nM | Log k' [3]: 1.18
SMILES: CC(C)(C)OC(=O)N[C@@H](Cc1ccccc1)[C@H](O)CNC[C@@H](O)[C@H](Cc1ccc(OCCN2CCOCC2)cc1)NC(=O)OC(C)(C)C
EC50 [2]: 70 nM | CC50 [4]: 25000 nM

SMILES: COCCCCOc1ccc(C[C@H](NC(=O)OC(C)(C)C)[C@H](O)CNC[C@@H](O)[C@H](Cc2ccccc2)NC(=O)OC(C)(C)C)cc1
IC50 [1]: 50 nM | EC50 [2]: < 30 nM | Log k' [3]: 1.6 | CC50 [4]: 12000 nM

SMILES: CC(C)(C)OC(=O)N[C@@H](Cc1ccccc1)[C@H](O)CNC[C@@H](O)[C@H](Cc1ccc(COC(=O)N2CCOCC2)cc1)NC(=O)OC(C)(C)C
IC50 [1]: 30 nM | EC50 [2]: 40 nM | Log k' [3]: 1.23 | CC50 [4]: 27000 nM

SMILES: CC(C)(C)OC(=O)N[C@@H](Cc1ccccc1)[C@H](O)CNC[C@@H](O)[C@H](Cc1ccc(OCCc2ccccn2)cc1)NC(=O)OC(C)(C)C
IC50 [1]: 50 nM | EC50 [2]: 40 nM | Log k' [3]: 1.39 | CC50 [4]: 5000 nM

SMILES: CC(C)(C)OC(=O)N[C@@H](Cc1ccccc1)[C@H](O)CNC[C@@H](O)[C@H](Cc1ccc(OCCOc2cccnc2)cc1)NC(=O)OC(C)(C)C
IC50 [1]: 60 nM | EC50 [2]: 40 nM | Log k' [3]: 1.25 | CC50 [4]: 18000 nM

SMILES: CC(C)(C)OC(=O)N[C@@H](Cc1ccccc1)[C@H](O)CNC[C@@H](O)[C@H](Cc1ccc(OCc2ccccc2)cc1)NC(=O)OC(C)(C)C
IC50 [1]: 300 nM | EC50 [2]: 170 nM | Log k' [3]: 2 | CC50 [4]: 1800 nM

SMILES: CC(C)(C)OC(=O)N[C@@H](Cc1ccccc1)[C@H](O)CNC[C@@H](O)[C@H](Cc1ccc(OCC(=O)N2CCCCC2)cc1)NC(=O)OC(C)(C)C
IC50 [1]: 90 nM | EC50 [2]: 70 nM | Log k' [3]: 1.33 | CC50 [4]: 17000 nM

SMILES: CN1CCN(CCOc2ccc(C[C@H](NC(=O)OC(C)(C)C)[C@H](O)CNC[C@@H](O)[C@H](Cc3ccccc3)NC(=O)OC(C)(C)C)cc2)C1=O
IC50 [1]: 60 nM | EC50 [2]: 50 nM | Log k' [3]: 1.04 | CC50 [4]: 50000 nM

SMILES: CC(O)COc1ccc(C[C@H](NC(=O)OC(C)(C)C)[C@H](O)CNC[C@@H](O)[C@H](Cc2ccccc2)NC(=O)OC(C)(C)C)cc1 (stereo partly specified)
IC50 [1]: 49 nM | EC50 [2]: 70 nM | Log k' [3]: 1.02 | CC50 [4]: 22000 nM

half-life [5]: 4 h | Log k' [3]: 1.39
SMILES: CC(C)(C)OC(=O)N[C@@H](Cc1ccccc1)[C@H](O)CNC[C@@H](O)[C@H](Cc1ccccc1)NC(=O)OC(C)(C)C
EC50 [2]: 80 nM | CC50 [4]: 8500 nM | Therapeutic index [6]: 100 | EC50 [7]: 120 nM

SMILES: CC(C)(C)OC(=O)N[C@@H](Cc1ccccc1)[C@H](O)CNC[C@@H](O)[C@H](Cc1ccccc1O)NC(=O)OC(C)(C)C
IC50 [1]: 300 nM | EC50 [2]: 1200 nM | Log k' [3]: 1.16 | CC50 [4]: 17000 nM

SMILES: CC(C)(C)OC(=O)N[C@@H](Cc1ccccc1)[C@H](O)CNC[C@@H](O)[C@H](Cc1ccc(OCc2nc3ccccc3o2)cc1)NC(=O)OC(C)(C)C
IC50 [1]: 320 nM | EC50 [2]: 110 nM | Log k' [3]: 1.69 | CC50 [4]: 1900 nM

SMILES: CC(C)(C)OC(=O)N[C@@H](Cc1ccccc1)[C@H](O)CNC[C@@H](O)[C@H](Cc1ccc(OCCN2CCOC2=O)cc1)NC(=O)OC(C)(C)C
IC50 [1]: 40 nM | EC50 [2]: 80 nM | Log k' [3]: 0.82 | CC50 [4]: 52000 nM

From ChEMBL document CHEMBL1129312, “Aminodiol HIV protease inhibitors. Synthesis and structure-activity relationships of P1/P1' compounds: correlation between lipophilicity and cytotoxicity” (J Med Chem, 1996)
